According to the NIST ThermoML archive (doi:10.1021/je060271a):

Conditions: 303.15 K, Liquid, Vibrating tube method

CCCCC(=O)OCC(COC(=O)CCCC)(COC(=O)CCCC)COC(=O)CCCC [pentaerythritol tetrapentanoate]
Conditions | mass density [kg/m3]
1387.7 kPa | 1011.7
1391.5 kPa | 1011.7
1395 kPa | 1011.6
1398.3 kPa | 1011.8
1401.8 kPa | 1011.7
1405.8 kPa | 1011.7
1409.2 kPa | 1011.8
1413.1 kPa | 1011.7
1416.4 kPa | 1011.8
1419.7 kPa | 1011.8
1423.1 kPa | 1011.7
1427 kPa | 1011.8
1430.8 kPa | 1011.8
1434.2 kPa | 1011.9
1437.9 kPa | 1011.6
1441.9 kPa | 1011.8
1445.5 kPa | 1011.7
1449 kPa | 1011.8
1453.3 kPa | 1011.8
1456.6 kPa | 1011.8
1460.5 kPa | 1011.7
1464.6 kPa | 1011.9
1467.9 kPa | 1011.8
1471.8 kPa | 1011.8
1475.9 kPa | 1011.8
1479.9 kPa | 1011.8
1483.5 kPa | 1011.8
1487 kPa | 1011.7
1491.7 kPa | 1011.8
1495.5 kPa | 1011.9
1499.2 kPa | 1011.8
1503.7 kPa | 1011.9
1507.5 kPa | 1011.7
1511.2 kPa | 1011.8
1515 kPa | 1011.7
1519.8 kPa | 1011.7
1523.7 kPa | 1011.8
1527.3 kPa | 1011.8
1532.2 kPa | 1011.8
1536 kPa | 1011.7
1540 kPa | 1011.8
1544.5 kPa | 1011.8
1548.8 kPa | 1011.7
1552.7 kPa | 1011.8
1556.3 kPa | 1011.9
1561.3 kPa | 1011.9
1565.3 kPa | 1011.8
1569.5 kPa | 1011.8
1573.5 kPa | 1011.9
1577.5 kPa | 1011.9
1581.8 kPa | 1011.9
1585.8 kPa | 1011.8
1590.8 kPa | 1011.9
1595 kPa | 1011.8
1599 kPa | 1011.9
1604.2 kPa | 1011.9
1608.2 kPa | 1011.9
1612.5 kPa | 1011.9
1617.8 kPa | 1012
1621.9 kPa | 1011.9
1626.6 kPa | 1011.9
1630.8 kPa | 1011.8
1635 kPa | 1011.9
1640 kPa | 1012
1644.2 kPa | 1012
1648.7 kPa | 1011.8
1653.9 kPa | 1012.1
1658.9 kPa | 1011.8
1663.4 kPa | 1011.9
1668.6 kPa | 1011.9
1673.2 kPa | 1011.8
1677.7 kPa | 1011.8
1683.2 kPa | 1011.9
1687.7 kPa | 1012.1
1692.6 kPa | 1012
1697.3 kPa | 1011.9
1703 kPa | 1011.9
1707.7 kPa | 1012
1712 kPa | 1011.9
1717.8 kPa | 1011.9
1722.5 kPa | 1011.9
1727.3 kPa | 1012
1732.9 kPa | 1011.9
1737.7 kPa | 1012.1
1742.9 kPa | 1012.1
1747.8 kPa | 1012
1753.7 kPa | 1011.9
1758.4 kPa | 1012
1763.8 kPa | 1012
1768.6 kPa | 1012
1774.7 kPa | 1011.9
1779.9 kPa | 1012.1
1784.9 kPa | 1012
1791 kPa | 1011.9
1796 kPa | 1012
1800.9 kPa | 1012.1
1807.3 kPa | 1012
1812.5 kPa | 1012
1817.6 kPa | 1012.1
1824 kPa | 1011.9
1829.5 kPa | 1012.1
1834.9 kPa | 1012
1840.1 kPa | 1012
1846.6 kPa | 1012
1852.1 kPa | 1012
1857.5 kPa | 1012
1862.9 kPa | 1012
1869.5 kPa | 1012.1
1874.8 kPa | 1012.1
1881.8 kPa | 1012
1887 kPa | 1012.1
1892.9 kPa | 1012
1898.6 kPa | 1012.1
1904.4 kPa | 1012
1911.3 kPa | 1012.1
1916.8 kPa | 1012.1
1923.1 kPa | 1012.1
1930 kPa | 1012
1935.6 kPa | 1012.1
1941.3 kPa | 1011.9
1947.2 kPa | 1012.1
1954.3 kPa | 1012
1960.6 kPa | 1012
1966.7 kPa | 1012.1
1972.9 kPa | 1012.1
1980.4 kPa | 1012.1
1986.3 kPa | 1012.1
1992.3 kPa | 1012.1
1999.8 kPa | 1012.1
2006.4 kPa | 1012.1
2012.5 kPa | 1012.1
2018.9 kPa | 1012.1
2026.4 kPa | 1012.1
2033.5 kPa | 1012.1
2039.7 kPa | 1012.1
2046.1 kPa | 1012.1
2053.9 kPa | 1012.3
2060.5 kPa | 1012.1
2068.3 kPa | 1012.2
2074.9 kPa | 1012.1
2081.9 kPa | 1012.2
2090 kPa | 1012.3
2096.8 kPa | 1012.1
2103.5 kPa | 1012.2
2109.8 kPa | 1012.1
2118.5 kPa | 1012.2
2125.2 kPa | 1012.1
2132.5 kPa | 1012.3
2140.9 kPa | 1012.4
2147.8 kPa | 1012.2
2155.4 kPa | 1012.3
2162.7 kPa | 1012.2
2170 kPa | 1012.3
2178.5 kPa | 1012.3
2185.3 kPa | 1012.3
2192.6 kPa | 1012.2
2201.3 kPa | 1012.3
2208.7 kPa | 1012.3
2216.2 kPa | 1012.1
2223.6 kPa | 1012.2
2232.7 kPa | 1012.2
2240.1 kPa | 1012.3
2247.8 kPa | 1012.4
2256.6 kPa | 1012.3
2264.4 kPa | 1012.4
2272.4 kPa | 1012.3
2281.6 kPa | 1012.4
2289.2 kPa | 1012.3
2297.4 kPa | 1012.3
2305.2 kPa | 1012.3
2314.7 kPa | 1012.3
2322.9 kPa | 1012.2
2330.3 kPa | 1012.3
2339.9 kPa | 1012.4
2348.2 kPa | 1012.5
2356.9 kPa | 1012.5
2365.6 kPa | 1012.3
2373.5 kPa | 1012.5
2383.8 kPa | 1012.3
2391.9 kPa | 1012.4
2402.3 kPa | 1012.4
2411 kPa | 1012.3
2419.3 kPa | 1012.5
2429.4 kPa | 1012.4
2438.1 kPa | 1012.4
2446.9 kPa | 1012.4
2455.6 kPa | 1012.5
2464.8 kPa | 1012.4
2475.4 kPa | 1012.4
2484.4 kPa | 1012.5
2493.4 kPa | 1012.4
2504.2 kPa | 1012.4
2513.4 kPa | 1012.4
2522.4 kPa | 1012.5
2531.8 kPa | 1012.5
2543 kPa | 1012.6
2552.4 kPa | 1012.5
2561.7 kPa | 1012.5
2573.2 kPa | 1012.4
2582.7 kPa | 1012.6
2592.3 kPa | 1012.5
2601.8 kPa | 1012.5
2613.6 kPa | 1012.6
2623.2 kPa | 1012.5
2632.7 kPa | 1012.5
2642.9 kPa | 1012.6
2654.9 kPa | 1012.6
2664.6 kPa | 1012.5
2676.8 kPa | 1012.5
2686.8 kPa | 1012.6
2697.2 kPa | 1012.6
2707.4 kPa | 1012.6
2719.9 kPa | 1012.6
2730.3 kPa | 1012.6
2740.9 kPa | 1012.6
2751.7 kPa | 1012.5
2764.8 kPa | 1012.6
2775.1 kPa | 1012.6
2785.8 kPa | 1012.7
2799.2 kPa | 1012.6
2810.1 kPa | 1012.7
2820.9 kPa | 1012.7
2833.5 kPa | 1012.7
2844.6 kPa | 1012.7
2855.9 kPa | 1012.6
2869.2 kPa | 1012.7
2880.7 kPa | 1012.7
2892.5 kPa | 1012.8
2904.8 kPa | 1012.8
2916.2 kPa | 1012.6
2930.1 kPa | 1012.7
2941.7 kPa | 1012.8
2953.3 kPa | 1012.8
2967.4 kPa | 1012.8
2979.5 kPa | 1012.7
2991.5 kPa | 1012.8
3006.1 kPa | 1012.7
3018.4 kPa | 1012.8
3030.5 kPa | 1012.7
3043.3 kPa | 1012.8
3058.9 kPa | 1012.8
3070.7 kPa | 1012.9
3083.2 kPa | 1012.8
3096 kPa | 1012.8
3108.7 kPa | 1012.8
3123.9 kPa | 1012.9
3136.6 kPa | 1012.8
3149.9 kPa | 1013
3165.5 kPa | 1012.9
3179.1 kPa | 1013
3192.6 kPa | 1012.9
3205.9 kPa | 1012.9
3222.1 kPa | 1012.9
3236.3 kPa | 1012.9
3249.8 kPa | 1012.8
3263.8 kPa | 1013
3280.5 kPa | 1013
3294.2 kPa | 1013
3310.8 kPa | 1013
3324.8 kPa | 1013
3339.2 kPa | 1013.1
3353.6 kPa | 1013
3368.2 kPa | 1013
3385.5 kPa | 1013
3400.2 kPa | 1013.1
3415.1 kPa | 1013.1
3433 kPa | 1013.1
3448.4 kPa | 1012.9
3463.3 kPa | 1013.1
3478.2 kPa | 1013.1
3496.8 kPa | 1013.2
3512 kPa | 1013
3527.8 kPa | 1013.1
3546.5 kPa | 1013.2
3562.5 kPa | 1013.1
3578.4 kPa | 1013.2
3594 kPa | 1013.2
3613.4 kPa | 1013.2
3630 kPa | 1013
3646.7 kPa | 1013.2
3663.3 kPa | 1013.1
3683.1 kPa | 1013.2
3699.3 kPa | 1013.2
3716.7 kPa | 1013.2
3734 kPa | 1013.3
3753.9 kPa | 1013.3
3771.2 kPa | 1013.3
3789.1 kPa | 1013.3
3806.2 kPa | 1013.3
3827.7 kPa | 1013.4
3845.4 kPa | 1013.4
3863.8 kPa | 1013.3
3881.9 kPa | 1013.3
3903.9 kPa | 1013.3
3927.5 kPa | 1013.3
4003.7 kPa | 1013.4
4122.2 kPa | 1013.5
4149.2 kPa | 1013.6
4165.7 kPa | 1013.5
4185.8 kPa | 1013.5
4202.9 kPa | 1013.6
4220.2 kPa | 1013.5
4238.1 kPa | 1013.5
4257.1 kPa | 1013.5
4275.3 kPa | 1013.5
4293.5 kPa | 1013.7
4311 kPa | 1013.6
4333.3 kPa | 1013.7
4464.7 kPa | 1013.8
4605.8 kPa | 1013.8
4684.8 kPa | 1013.8
4702.2 kPa | 1013.9
4719.7 kPa | 1014
4737.5 kPa | 1013.9
4776.3 kPa | 1013.9
4798.6 kPa | 1013.9
4817.1 kPa | 1014
4836 kPa | 1013.9
4855.9 kPa | 1014
4875 kPa | 1013.9
4897.8 kPa | 1014.2
